Source: US20230087118A1, “IMIDAZO[1,2-a][sequence] DERIVATIVES AND THEIR USE IN THE TREATMENT OF DISEASE” (priority 2019, published 2023)
Where a name gives a salt, the structure may show the parent alone. Read-outs that look alike come from different tables or passages of the source.

Biological target: T1, IRAK4 (Homo sapiens, UniProt Q9NWZ3)
T1 sequence (Q9NWZ3 1-460): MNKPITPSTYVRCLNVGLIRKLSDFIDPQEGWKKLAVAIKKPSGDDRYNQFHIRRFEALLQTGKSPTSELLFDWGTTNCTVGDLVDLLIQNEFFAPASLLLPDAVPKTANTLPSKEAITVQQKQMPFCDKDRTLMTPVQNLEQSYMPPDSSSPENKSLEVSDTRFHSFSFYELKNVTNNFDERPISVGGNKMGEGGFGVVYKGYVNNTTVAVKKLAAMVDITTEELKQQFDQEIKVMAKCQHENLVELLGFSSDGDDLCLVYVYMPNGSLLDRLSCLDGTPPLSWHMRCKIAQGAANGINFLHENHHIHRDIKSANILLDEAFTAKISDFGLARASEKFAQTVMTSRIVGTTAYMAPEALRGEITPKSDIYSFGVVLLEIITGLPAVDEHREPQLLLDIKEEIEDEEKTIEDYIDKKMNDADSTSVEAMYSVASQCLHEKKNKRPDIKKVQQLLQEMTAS
Assay: biochemical

[1] = IRAK4 Biochemical Assay (1 mM ATP, 2 h) IC50 (μM), 1 mM ATP, 2 h, 100 pM IRAK4

Row | Compound | IC50 [µM] | IC50 [1] [µM]
1 | O=C(Nc1cccc(C(F)F)n1)c1cn2cc(C3CC3)nc2cc1OC1CCCC1 [Example 467, 7-(Cyclopentyloxy)-2-cyclopropyl-N-(6-(difluoromethyl)pyridin-2-yl)imidazo[1,2-a]pyridine-6-carboxamide] | 0.001 | 
2 | CC(C)Oc1cc2nc([C@]34CC[C@](C)(C3)OC4)cn2cc1C(=O)Nc1cccc(C(F)F)n1 (single isomer, unassigned) [Example 608] | 0.0001 | 
3 | CC(C)Oc1nc2nc(C34CCC(C)(C3)OC4)cn2cc1C(=O)Nc1cccc(C(F)F)n1 (stereo not drawn) [Example 247] | 0.0002 | 
4 | Cn1ccc(NC(=O)c2cn3cc([C@]45CC[C@](C)(C4)OC5)nc3cc2OC2CCC2)n1 (single isomer, unassigned) [Example 611] | 0.0013 | 
5 | COc1nc(C(=O)Nc2ccn(C)n2)cn2cc(C3CCOCC3)nc12 [Example 88] | 0.0509 | 
6 | CC(C)Oc1nc2nc(C34COC(C)(C3)C4)cn2cc1C(=O)Nc1cnn2ccc(C(F)F)nc12 [Example 309, N-(5-(difluoromethyl)pyrazolo[1,5-a]pyrimidin-3-yl)-7-isopropoxy-2-(1-methyl-2 oxabicyclo[2.1.1]hexan-4-yl)imidazo[1,2-a]pyrimidine-6-carboxamide trifluoroacetate] |  | 0.0299
7 | Cn1ccc(NC(=O)c2cn3cc(C4CC4)nc3c(OC3CC3)n2)n1 [Example 281, 8-Cyclopropoxy-2-cyclopropyl-N-(1-methyl-1H-pyrazol-3-yl)imidazo[1,2-a]pyrazine-6-carboxamide] | 0.0264 | 
8 | COc1ncccc1NC(=O)c1cn2cc(C34CC(OC)(C3)C4)nc2cc1OC(C)C [Example 252, 7-Isopropoxy-2-(3-methoxybicyclo[1.1.1]pentan-1-yl)-N-(2-methoxypyridin-3-yl)imidazo[1,2-a]pyridine-6-carboxamide trifluoroacetate] |  | 0.0004
9 | CC12CC(c3cn4cc(C(=O)Nc5cnn6cccnc56)c(OC5CCC5)cc4n3)(CO1)C2 [Example 406, 7-Cyclobutoxy-2-(1-methyl-2-oxabicyclo[2.1.1]hexan-4-yl)-N-(pyrazolo[1,5-a]pyrimidin-3-yl)imidazo[1,2-a]pyridine-6-carboxamide] | 0.0003 | 
10 | Cc1cnc2c(NC(=O)c3cn4cc(C56COC(C)(C5)C6)nc4c(F)c3OC(C)C)cnn2c1 [Example 292, 8-Fluoro-7-isopropoxy-2-(1-methyl-2-oxabicyclo[2.1.1]hexan-4-yl)-N-(6-methylpyrazolo[1,5-a]pyrimidin-3-yl)imidazo[1,2-a]pyridine-6-carboxamide trifluoroacetate] |  | 0.0026
11 | CCc1cccc(NC(=O)c2cn3cc(C4CC(OC)C4)nc3cc2OC)n1 (stereo not drawn) [Example 61] |  | 0.0351
12 | CC12CC(c3cn4cc(C(=O)Nc5cccn(C(F)F)c5=O)c(OCC5CC5(F)F)cc4n3)(CO1)C2 (stereo not drawn) [Example 452, 7-((2,2-Difluorocyclopropyl)methoxy)-N-(1-(difluoromethyl)-2-oxo-1,2-dihydropyridin-3-yl)-2-(1-methyl-2-oxabicyclo[2.1.1]hexan-4-yl)imidazo[1,2-a]pyridine-6-carboxamide] | 0.0008 | 
13 | COc1ncccc1NC(=O)c1cn2cc(C34COC(CF)(C3)C4)nc2c(OC(C)C)n1 [Example 339, 2-(1-(Fluoromethyl)-2-oxabicyclo[2.1.1]hexan-4-yl)-8-isopropoxy-N-(2-methoxypyridin-3-yl)imidazo[1,2-a]pyrazine-6-carboxamide] | 0.0008 | 
14 | COc1cccc(NC(=O)c2cn3cc(C4CCOCC4)nc3cc2OC(C)C)n1 [Example 93, 7-isopropoxy-N-(6-methoxypyridin-2-yl)-2-(tetrahydro-2H-pyran-4-yl)imidazo[1,2-a]pyridine-6-carboxamide] | 0.0002 | 
15 | CC12CC(c3cn4cc(C(=O)Nc5cccn(C6CC6)c5=O)c(OC5CCC5)nc4n3)(CO1)C2 [Example 651, 7-Cyclobutoxy-N-(1-cyclopropyl-2-oxo-1,2-dihydropyridin-3-yl)-2-(1-methyl-2-oxabicyclo[2.1.1]hexan-4-yl)imidazo[1,2-a]pyrimidine-6-carboxamide] |  | 0.0005
